Test results taken from patent US9840478B2 (MERCK SHARP & DOHME CORP., priority 2013, dated 2017).

test system: HIV-1 (H9IIIB strain); experiment: Cell-based HIV infection assay using a reporter (Cell-Based), MT4-GFP cells; conditions: Human immunodeficiency virus 1, MT4-GFP cells infected with HIV-1 H9IIIB; 50% normal human serum; mean of at least two independent experiments; read-out: Cell-based IP
Method: Cell-Based HIV Infection Assay Using a Reporter (“Cell-Based”):
MT4-GFP cells contain a stably integrated HIV long terminal repeat promoter directing the transcription of green fluorescent protein (GFP). When HIV infects the cell, GFP is produced and the cell becomes green. MT4-GFP cells (250,000 cells/ml) were bulk-infected with HIV-1 (H9IIIB strain) at low multiplicity of infection (MOI) in RPMI media, supplemented with 10% FBS for 24 hours. Cells were then washed once in RPMI plus 10% FBS and resuspended in RPMI plus 50% normal human serum (NHS). Test compounds were serial-diluted in DMSO using an ECHO liquid dispenser. A control well included a combination of three HIV drugs (an inhibitor of HIV protease, integrase strand transfer and a non-nucleoside reverse transcriptase inhibitor; triple drug). The infected MT4-GFP cells were added to a 384-well poly-D-lysine coated black plate with clear bottom in which the diluted test compounds were placed. The cells were seeded in the plate at 8,000 cells per well and the final DMSO concentration was 0.4%. Infected cells were quantified at both 24 and 48 hours post incubation using an Acumen eX3 plate reader. Viral reproductive ratio (R0) was determined using the number of infected cells at 48 hours divided by the number of infected cells at 24 hours. Percent viral growth inhibition was calculated by [1−(R−Rtripledrug)/(RDMSO−Rtripledrug)]*100. Compound potency IP or IC50 was determined with use of a 4-parameter dose response curve analysis.

Row | Compound | IC50 [µM]
1 | CC(C)[C@H](c1ccc(Cl)cc1)[C@H](N)C(=O)Nc1cncc(F)c1CC[C@H]1CNC[C@H](C)N1S(=O)(=O)C1CC1 [Example 177, (βR)-4-chloro-N-(4-{2-[(2S,6S)-1-(cyclopropylsulfonyl)-6-methylpiperazin-2-yl]ethyl}-5-fluoropyridin-3-yl)-β-(1-methylethyl)-L-phenylalaninamide] | 0.095
2 | COC(=O)N[C@H](C(=O)NC1CCCC1CC[C@H]1CNCCN1S(=O)(=O)c1ccccc1)C(c1ccc(Cl)cc1)C1CCOCC1 (stereo partly drawn) [Example 356, methyl ((1R,2S)-1-(4-chlorophenyl)-3-oxo-3-((2-(2-((S)-1-(phenylsulfonyl)piperazin-2-yl)ethyl)cyclopentyl)amino)-1-(tetrahydro-2H-pyran-4-yl)propan-2-yl)carbamate] | 0.028
3 | N[C@H](C(=O)Nc1cncc(F)c1CC[C@H]1CNCCN1S(=O)(=O)c1ccccc1)[C@@H](c1ccc(F)cc1)c1cc(F)cc(F)c1 [Example 30, (βS)-β-(3,5-difluorophenyl)-4-fluoro-N-(5-fluoro-4-{2-[(2S)-1-(phenylsulfonyl)piperazin-2-yl]ethyl}pyridin-3-yl)-L-phenylalaninamide] | 0.0093
4 | COC(=O)N[C@H](C(=O)Nc1cccc(F)c1CC[C@H]1CNC[C@H](C)N1S(=O)(=O)c1ccc(OC)cc1)C(c1cccc(F)c1)c1cccc(F)c1 [Example 157, 3-fluoro-N-[3-fluoro-2-(2-{(2S,6S)-1-[(4-methoxyphenyl)sulfonyl]-6-methylpiperazin-2-yl}ethyl)phenyl]-β-(3-fluorophenyl)-Nα-(methoxycarbonyl)-L-phenylalaninamide] | 0.0073
5 | COC(=O)N[C@H](C(=O)Nc1cccc(F)c1CC[C@H]1CNC[C@H](C)N1S(=O)(=O)c1ccccc1)[C@H](c1cccc(F)c1)c1cccc(Cl)c1 [Example 155, (βR)-3-chloro-N-(3-fluoro-2-{2-[(2S,6S)-6-methyl-1-(phenylsulfonyl)piperazin-2-yl]ethyl}phenyl)-β-(3-fluorophenyl)-Nα-(methoxycarbonyl)-L-phenylalaninamide] | 0.067
6 | O=Cc1ccc(S(=O)(=O)N2CCNC[C@@H]2CCc2c(F)cncc2NC(=O)C[C@@H](c2ccc(F)cc2)c2cc(F)cc(F)c2)cc1 [Example 319, (3S)-3-(3,5-difluorophenyl)-N-[5-fluoro-4-(2-{(2S)-1-[(4-formylphenyl)sulfonyl]piperazin-2-yl}ethyl)pyridin-3-yl]-3-(4-fluorophenyl)propanamide] | 0.059
7 | C[C@H]1CNC[C@H](CCc2c(F)cccc2NC(=O)[C@@H](N)[C@@H](c2ccc(F)cc2)c2cc(F)cc(F)c2)N1S(=O)(=O)C1CC1 [Example 223, (βS)-N-(2-{2-[(2S,6S)-1-(cyclopropylsulfonyl)-6-methylpiperazin-2-yl]ethyl}-3-fluorophenyl)-β-(3,5-difluorophenyl)-4-fluoro-L-phenylalaninamide] | 0.036
8 | C[C@H]1CNC[C@H](CCc2c(F)cccc2NC(=O)[C@@H](N)[C@@H](c2ccc(F)cc2)c2cc(F)cc(F)c2)N1S(C)(=O)=O [Example 258, (βS)-β-(3,5-difluorophenyl)-4-fluoro-N-(3-fluoro-2-{2-[(2S,6S)-6-methyl-1-(methylsulfonyl)piperazin-2-yl]ethyl}phenyl)-L-phenylalaninamide] | 0.031
9 | COC(=O)N[C@H](C(=O)Nc1cccc(F)c1CC[C@H]1CNC[C@H](C)N1S(C)(=O)=O)C(c1cccc(F)c1)c1cccc(F)c1 [Example 171, 3-fluoro-N-(3-fluoro-2-{2-[(2S,6S)-6-methyl-1-(methylsulfonyl)piperazin-2-yl]ethyl}phenyl)-β-(3-fluorophenyl)-Nα-(methoxycarbonyl)-L-phenylalaninamide] | 0.026
10 | C[C@H]1CNC[C@H](CCc2c(F)cccc2NC(=O)[C@@H](N)[C@@H](c2ccc(Cl)cc2)c2cccc(F)c2)N1S(C)(=O)=O [Example 108, (βS)-4-chloro-N-(3-fluoro-2-{2-[(2S,6S)-6-methyl-1-(methylsulfonyl)piperazin-2-yl]ethyl}phenyl)-β-(3-fluorophenyl)-L-phenylalaninamide] | 0.032
11 | COc1ccc(S(=O)(=O)N2[C@@H](CCc3c(F)cccc3NC(=O)[C@@H](N)[C@@H](c3ccc(F)cc3)c3cc(F)cc(F)c3)CNC[C@@H]2C)cc1 [Example 251, (βS)-β-(3,5-difluorophenyl)-4-fluoro-N-[3-fluoro-2-(2-{(2S,6S)-1-[(4-methoxyphenyl)sulfonyl]-6-methylpiperazin-2-yl}ethyl)phenyl]-L-phenylalaninamide] | 0.0041
12 | O=C(C[C@@H](c1ccc(F)cc1)c1cc(F)cc(F)c1)Nc1cncc(F)c1CC[C@H]1CNCCN1S(=O)(=O)N1CCc2ccccc2C1 [Example 322, (3S)-3-(3,5-difluorophenyl)-N-(4-{2-[(2S)-1-(3,4-dihydroisoquinolin-2(1H)-ylsulfonyl)piperazin-2-yl]ethyl}-5-fluoropyridin-3-yl)-3-(4-fluorophenyl)propanamide] | 0.53
13 | COC(=O)N[C@H](C(=O)Nc1cccc(F)c1CC[C@H]1CNC[C@H](C)N1S(=O)(=O)c1ccc(OC(F)(F)F)cc1)[C@@H](c1ccc(Cl)cc1)C(C)C [Example 142, (βR)-4-chloro-N-(3-fluoro-2-{2-[(2S,6S)-6-methyl-1-{[4-(trifluoromethoxy)phenyl]sulfonyl}piperazin-2-yl]ethyl}phenyl)-Nα-(methoxycarbonyl)-β-(1-methylethyl)-L-phenylalaninamide] | 0.084
14 | COC(=O)N[C@H](C(=O)Nc1cccc(F)c1CC[C@H]1CNC[C@@H](C)N1S(=O)(=O)c1ccccc1)C1(c2cc(F)cc(F)c2)CCOCC1 [Example 285, methyl {(1S)-1-[4-{3,5-difluorophenyl)tetrahydro-2H-pyran-4-yl]-2-[(3-fluoro-2-{2-[(2S,6R)-6-methyl-1-(phenylsulfonyl)piperazin-2-yl]ethyl}phenyl)amino]-2-oxoethyl}carbamate] | 0.029
15 | CC(C)OCC1CNC[C@H](CCc2c(F)cccc2NC(=O)[C@@H](N)[C@H](c2cccc(F)c2)c2cccc(Cl)c2)N1S(C)(=O)=O (stereo partly drawn) [Example 242, (βR)-β-(3-chlorophenyl)-3-fluoro-N-(3-fluoro-2-{2-[(2S)-6-[(1-methylethoxy)methyl]-1-(methylsulfonyl)piperazin-2-yl]ethyl}phenyl)-L-phenylalaninamide] | 0.22
16 | N[C@H](C(=O)Nc1cccc(F)c1CC[C@H]1CNCCN1S(=O)(=O)c1cc2ccccc2o1)[C@@H](c1ccc(F)cc1)c1cc(F)cc(F)c1 [Example 372, (2S,3S)-2-amino-N-(2-(2-((S)-1-(benzofuran-2-ylsulfonyl)piperazin-2-yl)ethyl)-3-fluorophenyl)-3-(3,5-difluorophenyl)-3-(4-fluorophenyl)propanamide] | 0.014
17 | N[C@H](C(=O)Nc1cncc(F)c1CC[C@H]1CNCCN1S(=O)(=O)c1ccccc1)[C@@H](c1ccc(Cl)cc1)c1cccc(OC(F)(F)F)c1 [Example 45, (βS)-4-chloro-N-(5-fluoro-4-{2-[(2S)-1-(phenylsulfonyl)piperazin-2-yl]ethyl}pyridin-3-yl)-β-[3-(trifluoromethoxy)phenyl]-L-phenylalaninamide] | 0.016
18 | CCOC(=O)N[C@H](C(=O)Nc1cccc(F)c1CC[C@H]1CNC[C@@H](C)N1S(=O)(=O)c1ccccc1)[C@@H](c1ccc(Cl)cc1)C1CCOCC1 [Example 148, (βR)-4-chloro-Nα-(ethoxycarbonyl)-N-(3-fluoro-2-{2-[(2S,6R)-6-methyl-1-(phenylsulfonyl)piperazin-2-yl]ethyl}phenyl)-β-(tetrahydro-2H-pyran-4-yl)-L-phenylalaninamide] | 0.0088
19 | COc1ccccc1S(=O)(=O)N1[C@@H](CCc2c(F)cncc2NC(=O)[C@@H](N)[C@@H](c2ccc(F)cc2)c2cc(F)cc(F)c2)CNC[C@@H]1C [Example 235, (βS)-β-(3,5-difluorophenyl)-4-fluoro-N-[5-fluoro-4-(2-{(2S,6S)-1-[(2-methoxyphenyl)sulfonyl]-6-methylpiperazin-2-yl}ethyl)pyridin-3-yl]-L-phenylalaninamide] | 0.023
20 | C[C@@H]1CNC[C@H](CCc2c(F)cccc2NC(=O)[C@@H](N)C(c2cccc(F)c2)c2cccc(F)c2)N1S(=O)(=O)C1CC1 [Example 181, N-(2-{2-[(2S,6R)-1-(cyclopropylsulfonyl)-6-methylpiperazin-2-yl]ethyl}-3-fluorophenyl)-3-fluoro-β-(3-fluorophenyl)-L-phenylalaninamide] | 0.17
21 | CC(=O)N[C@H](C(=O)Nc1cncc(F)c1CC[C@H]1CNCCN1S(=O)(=O)C1CC1)[C@@H](c1ccc(F)cc1)c1cc(F)cc(F)c1 [Example 80, (βS)-Nα-acetyl-N-(4-{2-[(2S)-1-(cyclopropylsulfonyl)piperazin-2-yl]ethyl}-5-fluoropyridin-3-yl)-3,5-difluoro-β-(4-fluorophenyl)-L-phenylalaninamide] | 0.066

same assay, conditions: MT4-GFP cells infected with HIV-1 H9IIIB; 50% normal human serum; mean of at least two independent experiments; read-out: Cell-based IP

Row | Compound | IC50 [µM]
22 | COC(=O)NC(C(=O)NC1CC1CC[C@H]1CNCCN1S(=O)(=O)c1ccccc1)C(c1ccc(F)cc1)c1ccc(F)cc1 (single isomer, unassigned) [Example 362] | 0.076
